Assay results taken from patent US20090143328A1, “Method of Treating Cancer by Administration of Topical Active Corticosteroids” (priority 2001, published 2009).

Experiments:
Format in all cases: in vivo, human
[1] = system: graft versus host disease (GVHD); assay: Randomized, double blind, placebo controlled trial of oral BDP: time to treatment failure (GVHD) through study days 50 and 80
Procedure: (§1) A randomized, prospective, double blind, placebo controlled, multi-center pivotal trial was conducted to evaluate beclomethasone dipropionate (BDP) as a treatment of cancer by enhancing the graft versus leukemia effect (GVL) while controlling graft versus host disease (GVHD) following hematopoietic stem cell transplant in blood-borne cancer patients. The trial was divided into two phases, the purpose was to monitor short term effectiveness of BDP to control graft versus host disease in the first phase and the second phase was to assess the effect of the drug treatment on long term survival due to recurrence of hematologic malignancy or other causes of death.
(§2) To minimize the exposure of patients to long term exposure to systemic corticosteroids (prednisone or prednisolone), which are used as the standard of care to prevent or treat symptoms of graft versus host disease in conjunction with other immunosuppressive drugs, patients were treated with an oral formulation of BDP. BDP was formulated as two separate oral dosage forms an immediate release (IR) tablet and an enteric coated (EC) tablet. 129 patients were enrolled and 67 patients were randomized to placebo and 62 to BDP, Patients were at least 10 days post allogeneic hematopoietic cell transplantation, had gastrointestinal symptoms consistent with Grade II GVHD, and had endoscopic evidence of GVHD. The diagnosis of GVHD was confirmed by biopsy of the intestine (esophagus, stomach, small intestine, or colon) or skin. After being diagnosed with GVHD, patients were started on standard prednisone therapy. Patients were administered 2 mg/kg/day or 1 mg/kg/day for 10 days as a starting dose. After 10 days at this initial dose, prednisone was tapered over 7 days, after which the patients were maintained on a maintenance physiologic replacement dose of prednisone of 0.0625 mg/kg/day or 0.125 mg/kg/day. Concurrently, patients received BDP at a dose of 2 mg four times daily, for a total dose of 8 mg, or placebo for a maximum of 50 days.
Patients were monitored at clinic visits for evidence of increase in symptoms of GVHD (primary treatment failure). The primary efficacy endpoint was the time to treatment failure through study day 50. Treatment failure was defined as a worsening or recurrence of GVHD of such degree as to require an increase in immunosuppressive therapy. A subject was defined as a treatment failure if the patient required prednisone or equivalent IV corticosteroids at doses higher than that specified in the protocol, in response to uncontrolled signs or symptoms of GVHD; or required additional immunosuppressant medications other than those permitted by the protocol in response to uncontrolled signs or symptoms of GVHD. The time to treatment failure was calculated as the number of days elapsed between the randomization date and the date on which the subject was first identified as a treatment failure by the investigator.
Secondary efficacy endpoints included: 1) the time to treatment failure through study day 80, 2) the proportion of subjects who experienced treatment failure by study days 10, 30, 50, 60, and 80, and 3) Karnofsky performance status scores.
(§3) The primary analysis of the primary and secondary efficacy endpoints was based on the intent-to-treat principle. The analysis of the primary efficacy endpoint was based on the Kaplan-Meier method and log-rank test stratified by source of allograft. Hypothesis tests of the primary and secondary efficacy endpoints were performed using a two-sided significance level of 0.05. No adjustments were made to the significance level for inferential tests of the secondary efficacy endpoints. All patients who received at least one dose of BDP or placebo were included in the assessment of safety.
The hazard ratio was estimated from a univariate Cox proportional hazards model. Placebo serves as the reference group.

[2] = Safety assessment in the same trial; conditions: oral BDP 2 mg four times daily for 50 days plus prednisone induction vs placebo
From the text: (§4) Safety was primarily assessed based on the following: 1) cumulative systemic corticosteroid exposure, 2) the incidence and degree of HPA axis suppression in patients who had not experienced treatment failure by study day 50, 3) rates of treatment-emergent adverse events, and 4) the overall survival rate 200 days post-transplant.
as §3

[3] = system: graft versus leukemia effect (GVL); assay: Overall survival 200 days post-transplant in the same trial (Kaplan-Meier, Cox proportional hazards models)
Procedure: as §1, §2, §4, §3
Based on a univariate time-dependent Cox proportional hazards model, the risk of mortality during this period was 68% lower following the initiation of treatment with BDP when compared to no treatment (hazard ratio 0.32; 95% CI: 0.12, 0.87; p=0.0252). A multivariate Cox model was used to evaluate the effect of BDP while simultaneously accounting for selected competing causes of mortality after hematopoietic cell transplant. The competing causes of mortality included the subject's age and gender, intensity of the conditioning regimen (myeloablative, non-myeloablative), primary diagnosis, transplant source (bone marrow, peripheral blood stem cells), and degree of HLA match, with greater benefit seen in the patients receiving non-myeloabaltive pre-conditioning.
The hazard ratio for each variable was estimated from a multivariate Cox proportional hazards model.

[4] = Kaplan-Meier estimate, fraction, all randomized subjects

CCC(=O)OCC(=O)[C@@]1(OC(=O)CC)[C@@H](C)C[C@H]2[C@@H]3CCC4=CC(=O)C=C[C@]4(C)[C@@]3(Cl)[C@@H](O)C[C@@]21C [BDP, beclomethasone dipropionate]
Reduction of risk of treatment failure relative to placebo, 50-day study treatment period ([1]; 50-day study treatment period): 37% | Increase of median time to treatment failure compared to placebo ([1]; 80-day study period): more than 28 days | Reduction of risk of treatment failure relative to placebo, entire 80-day study period ([1]; 80-day study period): 44% | Treatment failure rate by Study Day 50 [1, 4]: 0.31 | Treatment failure rate by Study Day 80 [1, 4]: 0.39 | Median time to treatment failure (95% CI), through Study Day 50 ([1]; all randomized subjects): Not achieved | Median time to treatment failure (95% CI), through Study Day 80 ([1]; all randomized subjects): Not achieved | Patients who met the treatment failure endpoint during the first 10 days of study treatment ([1]; first 10 days, all patients on high-dose prednisone): Eight | Number with treatment failure, through Study Day 50 ([1]; intent-to-treat, BDP N = 62, 2 mg four times daily oral, with prednisone induction and taper): 18 | Number with treatment failure, through Study Day 80 ([1]; intent-to-treat, BDP N = 62, includes 30-day post-treatment observation period): 22 | Share of the total number of treatment failures that occurred within the first 10 days of randomization ([1]; prior to the prednisone taper): 44% | Cumulative treatment failure rate by study day 50 ([1]; study day 50): 31% | Cumulative treatment failure rate by study day 80 ([1]; study day 80): 39% | Clinically significant toxicity [2]: without an increase in clinically significant toxicity | Relative reduction in mortality at 200 days post transplant ([3]; 200 days post transplant): 69% | Deaths with relapse of the underlying malignancy as primary cause, number of patients ([3]; 200 days post-transplant): 2 patients | Deaths with relapse of the underlying malignancy as primary cause, share of group ([3]; 200 days post-transplant): 3% | Hazard ratio, mortality, univariate time-dependent Cox model ([3]; 200 days post-transplant, BDP vs no treatment): 0.32 | Overall survival rate 200 days post-transplant ([3]; Kaplan-Meier estimate, fraction): 0.91 | Coefficient (bi), multivariate proportional hazards model for overall survival 200 days post-transplant ([3]; safety population): −1.155 | HR [exp(bi)], duration of overall survival 200 days post-transplant, multivariate Cox model ([3]; safety population, adjusted for competing causes of mortality): 0.32 | Lowering of risk of mortality following initiation of BDP compared to no treatment ([3]; univariate time-dependent Cox proportional hazards model, 200 days post-transplant): 68%
